This note sets out measurements from ChEMBL document CHEMBL1201862, “PubChem BioAssay data set” (2004).

Assay [1] in a line: non-specific 3'UTR reporter inhibition in Clone20-Shn3RL – cell-based, Renilla luciferase, cherry-picked, counter-screen for Shn3 inhibitor project, dose response (AID 624133). The assay is classed as functional.
Assay [2] concerns the target Mucolipin-3 (Homo sapiens, UniProt Q8TDD5). The assay is described as follows: Fluorescence counterscreen assay for […] agonists: dose response cell-based high-throughput screening assay to identify agonists of the transient receptor potential channel ML3 (TRPML3). [Related pubchem assays: 1424, 1448 ]. Type of assay: functional.
Assay [3] is described as follows: reduction of Shn3 3'UTR-driven luciferase in osteoblasts – cell-based, Clone20 osteoblasts, firefly luciferase, cherry-picked, dose response (AID 624132).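 Note: firefly luciferase luminescence from reporter carrying the Shn3 3'UTR in osteoblasts.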 The assay is classed as functional.
A short description of assay [4]: loss of viability in HepG2 cells – cell-based, CellTiter-Glo, cherry-picked, cytotoxicity control for Shn3 inhibitor project, dose response (AID 624134). Type of assay: functional.
Assay [5] addresses Ion channel NompC (Danio rerio, UniProt Q7T1G6). In words: Dose response cell-based high-throughput screening assay for agonists of the transient receptor potential channel N1 (TRPN1). [Related pubchem assays (depositor defined):AID1424, AID1448]. Type of assay: functional.
Assay [6] addresses Peroxisome proliferator-activated receptor gamma/Nuclear receptor coactivator 2 (Homo sapiens, UniProt P37231). The assay is classed as functional.
For assay [7], the target named is T1, Dual specificity protein phosphatase 6 (Rattus norvegicus, UniProt Q64346).
T1 sequence (Q64346 whole entry): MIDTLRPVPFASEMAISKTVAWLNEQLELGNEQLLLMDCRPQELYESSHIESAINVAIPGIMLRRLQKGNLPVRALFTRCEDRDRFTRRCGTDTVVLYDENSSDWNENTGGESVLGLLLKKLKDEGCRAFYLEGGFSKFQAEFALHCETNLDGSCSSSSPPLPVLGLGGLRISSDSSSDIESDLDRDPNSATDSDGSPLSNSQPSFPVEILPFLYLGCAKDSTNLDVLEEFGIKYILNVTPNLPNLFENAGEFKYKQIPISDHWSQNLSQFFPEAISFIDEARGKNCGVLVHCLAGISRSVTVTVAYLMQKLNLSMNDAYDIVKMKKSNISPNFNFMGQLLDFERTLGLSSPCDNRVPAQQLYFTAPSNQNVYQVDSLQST
Type of assay: functional.

In assay [8] the target is T2, Dual specificity protein phosphatase 3 (Homo sapiens, UniProt P51452). The assay is described as follows: VHR1 phosphatase inhibitors, primary screen, biochemical, absorbance, uHTS (AID 1654).
Assay [9] deals with Glucose-6-phosphate 1-dehydrogenase (Homo sapiens, UniProt P11413). The assay is described as follows: inhibition of Homo sapiens G6PD, dose series – biochemical, fluorescence, selectivity assay for P. falciparum G6PD inhibitor project, dose response (AID 504792). Type of assay: functional.
Assay [10] concerns the target T2, Dual specificity protein phosphatase 3. The assay is described as follows: SAR VHR1 Fluorescent Assay for In Vitro dose response studies Set 2. [Related pubchem assays (depositor defined):AID1654, AID1661, AID1878]. Type of assay: functional.
The target in assay [11] is T3, Tyrosine-protein phosphatase non-receptor type 7 (Homo sapiens, UniProt P35236).
T3 sequence (P35236 whole entry): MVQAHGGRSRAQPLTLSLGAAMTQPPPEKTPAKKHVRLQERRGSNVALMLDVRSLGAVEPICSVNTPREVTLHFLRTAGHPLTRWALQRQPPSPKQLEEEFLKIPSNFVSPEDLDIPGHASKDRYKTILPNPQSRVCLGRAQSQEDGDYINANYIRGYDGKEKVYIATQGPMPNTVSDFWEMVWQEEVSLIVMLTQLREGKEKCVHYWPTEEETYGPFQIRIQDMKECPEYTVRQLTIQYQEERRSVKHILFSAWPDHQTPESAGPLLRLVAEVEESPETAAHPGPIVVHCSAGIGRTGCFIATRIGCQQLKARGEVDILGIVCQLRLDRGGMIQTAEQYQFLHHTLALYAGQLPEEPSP
In words: SAR analysis of chemical inhibitors of HePTP using a Fluorescent assay - Set 2. [Related pubchem assays (depositor defined):AID1059, AID1077, AID1661, AID2085, AID521]. Type of assay: functional.

The target of assay [12] is T2, Dual specificity protein phosphatase 3. The assay is described as follows: SAR VHR1 Fluorescent Assay for In Vitro dose response studies. [Related pubchem assays (depositor defined):AID1654, AID1661, AID1878, AID1992, AID2004, AID2070, AID2085]. The assay is classed as functional.
For assay [13], the target named is DNA dC->dU-editing enzyme APOBEC-3G (Homo sapiens, UniProt Q9HC16). The assay is described as follows: Dose Response confirmation of small molecule APOBEC3G DNA Deaminase Inhibitors via a fluorescence-based single-stranded DNA deaminase assay. [Related pubchem assays (depositor defined):AID493012, AID493028]. Type of assay: functional.
Assay [14] addresses T2, Dual specificity protein phosphatase 3. The assay is described as follows: VHR1 phosphatase inhibitors, biochemical (AID 1878).
Assay [15] deals with Peroxisome proliferator-activated receptor gamma/Nuclear receptor coactivator 3 (Homo sapiens, UniProt P37231). Type of assay: functional.
The target of assay [16] is T2, Dual specificity protein phosphatase 3. The assay is described as follows: SAR VHR1 absorbance Assay for In Vitro dose response studies. [Related pubchem assays (depositor defined):AID1654, AID1661, AID1878, AID1992, AID2004].
Assay [17] addresses Peroxisome proliferator-activated receptor gamma/Nuclear receptor coactivator 1 (Homo sapiens, UniProt P37231). The assay is classed as functional.
The target of assay [18] is T3, Tyrosine-protein phosphatase non-receptor type 7. In words: redox-active compounds inhibiting HePTP phosphatase – biochemical, fluorescence, mechanism study (AID 2068). The assay is classed as functional.
Assay [19] addresses DNA dC->dU-editing enzyme APOBEC-3A (Homo sapiens, UniProt P31941). In words: A3A deaminase inhibition for selectivity – biochemical, dose response (AID 504722). Type of assay: functional.
For assay [20], the target named is T1, Dual specificity protein phosphatase 6. In words: SAR analysis of inhibitors of MKP-3 - Set 2. [Related pubchem assays (depositor defined):AID1055, AID1661, AID425, AID553, AID566]. The assay is classed as functional.
Assay [21] has the same target. The assay is described as follows: inhibition of rat DUSP6 enzyme activity – biochemical, in vitro, primary screen (AID 425).
In assay [22] the target is T4, Cannabinoid receptor 1 (Homo sapiens, UniProt P21554). The assay is described as follows: SAR analysis of agonists of the Cannabinoid Receptor 1 using an Image-Based Assay - Set 3. [Related pubchem assays (depositor defined):AID1961, AID1965]. The assay is classed as functional.
Assay [23] deals with T5, G-protein coupled receptor 35 (Homo sapiens, UniProt Q9HC97). In words: SAR analysis of Antagonists of the GPR35 Receptor using an Image-Based Assay - Set 4. [Related pubchem assays (depositor defined):[…]]. The assay is classed as functional.
For assay [24], the target named is G-protein coupled receptor 55 (Homo sapiens, UniProt Q9Y2T6). The assay is described as follows: SAR analysis of selective Agonists of GPR55 using an Image-Based Assay - Set 2. [Related pubchem assays (depositor defined):AID1961, AID1965]. Type of assay: functional.
Assay [25] addresses T4, Cannabinoid receptor 1. In words: SAR analysis of antagonists of the Cannabinoid Receptor 1 using an Image-Based Assay - Set 3. [Related pubchem assays (depositor defined):AID1961, AID1965]. Type of assay: functional.
Assay [26] deals with T5, G-protein coupled receptor 35. The assay is described as follows: SAR analysis of Agonists of the GPR35 Receptor using an Image-Based Assay - Set 3. [Related pubchem assays (depositor defined):AID1961, AID1965]. Type of assay: functional.
The target in assay [27] is T6, Cannabinoid receptor 2 (Homo sapiens, UniProt P34972). The assay is described as follows: SAR analysis of antagonists of the Cannabinoid Receptor 2 using an Image-Based Assay - Set 2. [Related pubchem assays (depositor defined):AID1961, AID1965]. The assay is classed as functional.
Assay [28] deals with T6, Cannabinoid receptor 2. The assay is described as follows: SAR analysis of agonists of the Cannabinoid Receptor 2 using an Image-Based Assay - Set 2. [Related pubchem assays (depositor defined):AID1961, AID1965]. Type of assay: functional.
Assay [29] has as its target T7, Alkaline phosphatase, tissue-nonspecific isozyme (Homo sapiens, UniProt P05186).
T7 sequence (P05186 whole entry): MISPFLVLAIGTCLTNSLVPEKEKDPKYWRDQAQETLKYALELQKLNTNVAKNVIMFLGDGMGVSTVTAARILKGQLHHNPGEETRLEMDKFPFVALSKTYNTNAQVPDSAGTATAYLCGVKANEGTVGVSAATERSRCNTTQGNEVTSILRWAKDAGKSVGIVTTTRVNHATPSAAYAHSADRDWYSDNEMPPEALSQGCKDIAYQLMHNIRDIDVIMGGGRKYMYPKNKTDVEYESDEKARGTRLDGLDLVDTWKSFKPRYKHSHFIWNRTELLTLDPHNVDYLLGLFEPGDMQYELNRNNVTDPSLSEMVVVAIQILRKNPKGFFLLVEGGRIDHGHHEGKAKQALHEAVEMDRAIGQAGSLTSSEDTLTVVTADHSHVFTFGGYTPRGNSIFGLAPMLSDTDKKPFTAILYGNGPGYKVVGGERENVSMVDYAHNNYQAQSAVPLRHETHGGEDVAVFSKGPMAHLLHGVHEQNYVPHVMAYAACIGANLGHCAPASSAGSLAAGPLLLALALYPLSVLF
The assay is described as follows: TNAP enzyme inhibition by screening hits, dose response, selectivity assay for mouse IAP inhibitor project, biochemical, human TNAP, uHTS hits (AID 488906). Type of assay: functional.

Assay [30] has as its target Intestinal-type alkaline phosphatase (Mus musculus, UniProt P24822). In words: PubChem AID 488785. The assay is classed as functional.
Assay [31] has as its target Intestinal-type alkaline phosphatase (Homo sapiens, UniProt P09923). In words: activation of human intestinal alkaline phosphatase – biochemical, dose response (AID 488873). The assay is classed as functional.
The target in assay [32] is Troponin, cardiac muscle (Homo sapiens, UniProt P19429+P45379+P63316). The assay is described as follows: Fluorescence-based biochemical high throughput dose response assay for activators of the calcium sensitivity of cardiac Regulated Thin Filaments (RTF). [Related pubchem assays (depositor defined):AID493008, AID493018, AID504382, AID504383]. Type of assay: protein-complex assay.

Assay [33] concerns the target Kappa-type opioid receptor (Homo sapiens, UniProt P41145). In words: SAR analysis of small molecule agonists of the kappa opioid receptor via a luminescent beta-arrestin assay - Set 3. [Related pubchem assays (depositor defined):AID1777, AID1785, AID1786, AID1966, AID2133, AID2136, AID2284, AID2500]. The assay is classed as functional.
The target of assay [34] is Hexokinase-1 (Homo sapiens, UniProt P19367). In words: HK1 enzyme activation by HKDC1 hits – biochemical, selectivity assay for HKDC1 activator project, dose response (AID 504762). Type of assay: functional.
For assay [35], the target named is Hexokinase HKDC1 (Homo sapiens, UniProt Q2TB90). The assay is described as follows: activation of HKDC1 glucose phosphorylation – biochemical, W721R variant, dose response (AID 504730). Type of assay: functional.

Active and inactive are the calls of the source.

T2 sequence (P51452 whole entry): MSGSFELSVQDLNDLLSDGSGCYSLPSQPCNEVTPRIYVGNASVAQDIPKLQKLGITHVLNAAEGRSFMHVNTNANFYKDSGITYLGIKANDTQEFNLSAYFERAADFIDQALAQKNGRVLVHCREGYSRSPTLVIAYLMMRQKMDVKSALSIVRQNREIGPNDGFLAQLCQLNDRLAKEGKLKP
T6 sequence (P34972 whole entry): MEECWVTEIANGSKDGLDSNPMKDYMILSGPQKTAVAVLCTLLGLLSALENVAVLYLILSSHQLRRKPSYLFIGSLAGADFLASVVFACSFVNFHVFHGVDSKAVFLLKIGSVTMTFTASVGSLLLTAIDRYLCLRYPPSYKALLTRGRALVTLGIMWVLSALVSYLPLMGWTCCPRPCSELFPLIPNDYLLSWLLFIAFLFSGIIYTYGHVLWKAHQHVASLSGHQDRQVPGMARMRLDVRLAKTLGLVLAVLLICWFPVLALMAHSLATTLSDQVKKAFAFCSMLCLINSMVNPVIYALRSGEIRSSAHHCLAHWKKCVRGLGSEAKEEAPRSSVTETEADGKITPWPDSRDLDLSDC
T5 sequence (Q9HC97 whole entry): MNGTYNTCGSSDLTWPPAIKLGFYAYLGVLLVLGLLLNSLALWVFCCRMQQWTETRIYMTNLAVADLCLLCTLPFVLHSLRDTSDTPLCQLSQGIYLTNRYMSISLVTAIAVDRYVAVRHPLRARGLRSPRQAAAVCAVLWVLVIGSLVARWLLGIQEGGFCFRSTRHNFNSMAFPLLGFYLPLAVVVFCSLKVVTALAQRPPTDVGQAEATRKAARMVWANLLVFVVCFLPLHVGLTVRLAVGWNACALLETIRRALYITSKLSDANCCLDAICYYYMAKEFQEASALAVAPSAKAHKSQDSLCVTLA
T4 sequence (P21554 whole entry): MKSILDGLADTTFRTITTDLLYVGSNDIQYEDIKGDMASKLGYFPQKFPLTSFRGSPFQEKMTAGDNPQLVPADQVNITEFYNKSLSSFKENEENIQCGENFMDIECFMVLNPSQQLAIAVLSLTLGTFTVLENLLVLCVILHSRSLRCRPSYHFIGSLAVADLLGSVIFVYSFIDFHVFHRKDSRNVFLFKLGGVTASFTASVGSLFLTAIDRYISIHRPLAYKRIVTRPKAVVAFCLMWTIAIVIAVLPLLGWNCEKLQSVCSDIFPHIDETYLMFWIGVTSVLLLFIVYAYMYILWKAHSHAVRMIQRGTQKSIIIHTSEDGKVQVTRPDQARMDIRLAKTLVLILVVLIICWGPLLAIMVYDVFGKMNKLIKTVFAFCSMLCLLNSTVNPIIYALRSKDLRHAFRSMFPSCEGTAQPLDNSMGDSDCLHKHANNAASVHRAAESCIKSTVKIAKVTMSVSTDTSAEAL
Chain of Mucolipin-3 (Q8TDD5 whole entry): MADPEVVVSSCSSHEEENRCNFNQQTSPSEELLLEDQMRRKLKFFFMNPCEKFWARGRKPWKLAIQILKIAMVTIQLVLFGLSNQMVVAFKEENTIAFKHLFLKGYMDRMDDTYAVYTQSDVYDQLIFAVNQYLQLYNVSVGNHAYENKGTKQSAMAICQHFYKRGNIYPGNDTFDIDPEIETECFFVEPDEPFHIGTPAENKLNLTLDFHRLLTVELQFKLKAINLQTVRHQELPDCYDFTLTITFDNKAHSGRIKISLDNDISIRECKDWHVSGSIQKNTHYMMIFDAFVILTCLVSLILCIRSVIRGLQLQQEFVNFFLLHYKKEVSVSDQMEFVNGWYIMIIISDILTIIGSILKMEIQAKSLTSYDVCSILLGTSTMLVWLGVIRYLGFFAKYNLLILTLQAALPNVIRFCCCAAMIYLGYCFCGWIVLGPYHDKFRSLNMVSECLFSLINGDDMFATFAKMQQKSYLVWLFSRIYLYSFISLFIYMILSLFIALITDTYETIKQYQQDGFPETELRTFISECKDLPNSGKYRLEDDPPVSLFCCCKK
Chain of Intestinal-type alkaline phosphatase (Mus musculus, UniProt P24822) (P24822 whole entry): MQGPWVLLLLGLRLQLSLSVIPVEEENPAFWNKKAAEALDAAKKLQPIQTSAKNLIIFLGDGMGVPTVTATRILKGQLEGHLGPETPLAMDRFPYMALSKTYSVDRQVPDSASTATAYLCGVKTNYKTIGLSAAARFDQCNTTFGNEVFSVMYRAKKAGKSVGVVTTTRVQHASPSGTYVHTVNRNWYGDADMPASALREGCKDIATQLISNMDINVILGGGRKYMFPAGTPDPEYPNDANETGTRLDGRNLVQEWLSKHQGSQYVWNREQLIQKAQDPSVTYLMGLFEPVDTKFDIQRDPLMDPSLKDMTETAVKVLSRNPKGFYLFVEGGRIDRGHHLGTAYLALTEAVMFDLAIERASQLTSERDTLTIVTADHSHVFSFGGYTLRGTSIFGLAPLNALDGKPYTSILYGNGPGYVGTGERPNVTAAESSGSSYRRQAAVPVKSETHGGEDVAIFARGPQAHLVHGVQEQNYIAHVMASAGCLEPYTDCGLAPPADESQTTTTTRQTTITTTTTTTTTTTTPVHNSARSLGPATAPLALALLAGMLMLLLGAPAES
Chain of Hexokinase HKDC1 (Q2TB90 whole entry): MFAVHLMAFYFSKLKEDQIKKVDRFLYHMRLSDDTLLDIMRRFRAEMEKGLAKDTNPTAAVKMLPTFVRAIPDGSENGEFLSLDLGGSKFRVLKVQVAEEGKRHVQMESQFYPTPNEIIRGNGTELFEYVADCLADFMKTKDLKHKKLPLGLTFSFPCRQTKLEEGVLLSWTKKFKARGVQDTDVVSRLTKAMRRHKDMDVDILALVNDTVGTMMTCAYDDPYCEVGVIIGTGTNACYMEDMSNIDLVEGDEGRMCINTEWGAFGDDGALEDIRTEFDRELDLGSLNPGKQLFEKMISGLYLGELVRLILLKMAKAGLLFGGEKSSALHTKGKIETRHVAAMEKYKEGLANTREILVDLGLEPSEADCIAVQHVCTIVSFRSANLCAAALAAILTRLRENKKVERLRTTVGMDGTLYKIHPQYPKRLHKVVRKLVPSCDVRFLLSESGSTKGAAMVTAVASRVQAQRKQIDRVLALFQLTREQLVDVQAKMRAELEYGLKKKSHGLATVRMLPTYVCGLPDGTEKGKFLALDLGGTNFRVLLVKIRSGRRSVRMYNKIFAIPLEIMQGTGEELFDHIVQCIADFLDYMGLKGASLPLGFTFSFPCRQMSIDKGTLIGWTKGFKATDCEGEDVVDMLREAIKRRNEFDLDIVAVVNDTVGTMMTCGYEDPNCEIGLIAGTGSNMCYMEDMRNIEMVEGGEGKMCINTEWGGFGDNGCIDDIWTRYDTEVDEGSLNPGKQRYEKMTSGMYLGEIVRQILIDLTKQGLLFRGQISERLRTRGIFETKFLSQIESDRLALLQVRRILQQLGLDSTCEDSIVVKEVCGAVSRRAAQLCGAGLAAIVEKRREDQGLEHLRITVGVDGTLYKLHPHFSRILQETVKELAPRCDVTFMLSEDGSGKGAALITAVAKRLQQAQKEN
Chain of DNA dC->dU-editing enzyme APOBEC-3A (P31941 whole entry): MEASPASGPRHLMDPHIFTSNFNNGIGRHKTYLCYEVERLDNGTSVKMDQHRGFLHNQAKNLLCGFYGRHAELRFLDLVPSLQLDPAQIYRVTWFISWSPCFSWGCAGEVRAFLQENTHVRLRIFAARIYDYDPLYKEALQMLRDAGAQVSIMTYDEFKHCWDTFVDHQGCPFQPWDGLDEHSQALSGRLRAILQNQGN
Chain of Kappa-type opioid receptor (P41145 whole entry): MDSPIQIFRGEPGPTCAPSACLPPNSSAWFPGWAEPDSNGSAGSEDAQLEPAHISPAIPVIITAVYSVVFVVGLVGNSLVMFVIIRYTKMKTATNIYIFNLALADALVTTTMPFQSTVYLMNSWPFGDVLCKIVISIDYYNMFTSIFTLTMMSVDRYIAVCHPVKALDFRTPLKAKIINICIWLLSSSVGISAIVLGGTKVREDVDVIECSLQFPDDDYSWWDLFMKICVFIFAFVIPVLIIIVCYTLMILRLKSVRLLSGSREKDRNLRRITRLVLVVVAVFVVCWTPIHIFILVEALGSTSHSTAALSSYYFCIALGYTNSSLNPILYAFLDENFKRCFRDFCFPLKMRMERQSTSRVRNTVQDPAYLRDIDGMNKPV
Chain of Hexokinase-1 (P19367 whole entry): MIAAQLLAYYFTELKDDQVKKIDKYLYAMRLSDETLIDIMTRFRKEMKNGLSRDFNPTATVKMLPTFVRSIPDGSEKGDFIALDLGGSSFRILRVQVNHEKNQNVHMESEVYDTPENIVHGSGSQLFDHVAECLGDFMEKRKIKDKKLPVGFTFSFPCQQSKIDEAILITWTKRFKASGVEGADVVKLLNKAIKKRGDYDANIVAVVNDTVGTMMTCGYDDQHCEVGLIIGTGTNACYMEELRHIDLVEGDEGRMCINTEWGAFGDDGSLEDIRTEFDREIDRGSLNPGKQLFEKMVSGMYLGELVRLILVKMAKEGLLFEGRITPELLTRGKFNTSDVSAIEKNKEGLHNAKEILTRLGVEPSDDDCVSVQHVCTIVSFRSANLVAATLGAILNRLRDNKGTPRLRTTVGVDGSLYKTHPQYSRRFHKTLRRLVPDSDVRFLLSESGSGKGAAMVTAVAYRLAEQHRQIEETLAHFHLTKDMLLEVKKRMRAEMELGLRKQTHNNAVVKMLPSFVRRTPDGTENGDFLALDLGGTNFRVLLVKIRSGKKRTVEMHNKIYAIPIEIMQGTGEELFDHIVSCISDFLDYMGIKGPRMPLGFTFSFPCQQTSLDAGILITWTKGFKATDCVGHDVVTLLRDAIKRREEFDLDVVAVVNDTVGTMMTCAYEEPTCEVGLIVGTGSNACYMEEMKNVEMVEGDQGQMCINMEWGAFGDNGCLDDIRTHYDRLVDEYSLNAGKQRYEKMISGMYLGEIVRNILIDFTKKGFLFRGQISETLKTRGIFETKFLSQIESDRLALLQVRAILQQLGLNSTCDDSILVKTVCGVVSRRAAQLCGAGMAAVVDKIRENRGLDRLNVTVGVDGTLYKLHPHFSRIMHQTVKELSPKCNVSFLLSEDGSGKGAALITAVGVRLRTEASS

With `Cc1ccc([N+](=O)[O-])cc1NC(=O)Nc1cccc(F)c1`, the AC50 in assay [1] is 2.13 µM (active); in [3] it was 2.21 µM (active); in assay [4], 7.82 µM (active). Besides, the EC50 in [2] is > 29.9 µM (not active); in [5], > 29.9 µM (inactive).
Consider `Cc1ccc(-n2c(N)c(C(=O)N3CCN(C)CC3)sc2=S)cc1`, for which the EC50 in [6], in assay [15] and in [17] was > 79.4 µM (not active) in each case. Also, the IC50 in assay [7] is > 99 µM (inactive); in [8], 2.33 µM (active); in [9], > 80 µM (inactive); in assay [10], 0.402 µM (active); in assay [11] it was 0.455 µM (active); in [12] it was > 99 µM (inactive). The 50% inhibitory concentration (IC50) in assay [13] was 7.99 µM (active); in assay [14], 5.73 µM (active); in assay [16], 0.25 µM (active); in assay [18] it was 0.0144 µM (active); in assay [19] it was > 100 µM (inactive); in assay [20] it was > 100 µM (inactive). Moreover, the IC50 in [21] is listed as > 158 µM (not active).
`CC(C)Oc1ccc(S(=O)(=O)N2CCOCC2)cc1NC(=O)c1cc2ccccc2s1`: the EC50 in assay [22], in assay [24], in assay [26] and in assay [28] was > 32 µM (inactive) each time. Also, the IC50 in assay [23], in [25] and in [27] was > 32 µM (inactive) each time.
For the molecule `CN(CC(=O)Nc1cccc(Cl)c1)S(=O)(=O)c1ccc2[nH]c(=O)oc2c1`, the IC50 was 7.87 µM (active) in assay [29] and 9.88 µM (active) in [30]. For the same molecule, the EC50 in assay [31] was > 100 µM (inactive).
As for `C=CCN1C(=O)c2ccccc2NC1c1cc(Br)cs1` (stereo not given), in [32], the EC50 was > 71.5 µM (inactive).
On to `FC(F)(F)c1cc(CSc2nnc(-c3ccncc3)n2Cc2ccco2)ccc1Cl`, for which, in assay [33], the EC50 is > 20 µM (inactive).
On to `CC12CCC(C(=O)N/N=C/c3ccc(O)cc3O)(OC1=O)C2(C)C` (stereo not given), for which the EC50 in assay [34] and in assay [35] was > 80 µM (inactive) in each case.
